The target in series [1] is hPD-1/hPD-L1 interaction (Homo sapiens (Human), UniProt Q9NZQ7). The following applies: read-out: PD-1/PD-L1 IC50.
Series [2] has as its system C57BL/6 mice. Briefly: Acute toxicity test, intraperitoneal injection. The conditions noted are these: 125 mg/kg.
Series [3] concerns MC38-hPDL1 colon cancer cells. Also on record: species or system mice. The conditions noted are these: mouse, in vivo.
Series [4] deals with C57BL/6 mice. The conditions noted are these: mouse, in vivo.
The target of series [5] is Fc-hPD-L1 protein (Homo sapiens (Human), UniProt Q9NZQ7). The class given is binding.
Fc-hPD-L1 protein, sequence (Q9NZQ7 19-238 limits assumed): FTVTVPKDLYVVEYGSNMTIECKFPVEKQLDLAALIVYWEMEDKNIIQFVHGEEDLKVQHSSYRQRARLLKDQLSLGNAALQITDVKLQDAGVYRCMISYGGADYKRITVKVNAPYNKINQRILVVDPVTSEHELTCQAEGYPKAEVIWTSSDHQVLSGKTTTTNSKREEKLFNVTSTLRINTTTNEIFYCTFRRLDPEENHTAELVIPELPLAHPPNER

21 compounds from patent publication US20240043392A1, “NOVEL BIPHENYL DERIVATIVE AND PREPARATION METHOD AND PHARMACEUTICAL USE THEREOF” (XI'AN XINTON PHARMACEUTCAL RESEARCH CO., LTD., priority 2021, published 2024) can be followed below.

Like-named read-outs stand apart in the source and are kept apart here.

A word on the Kd: it is the constant that tells how readily two partners part at equilibrium. Higher therefore signals weaker binding.

hPD-1/hPD-L1 interaction, sequence (Q9NZQ7 19-238): as the sequence (Q9NZQ7 19-238 limits assumed) above

Take “1-(4-((3′-(3-(4-((2-carbamoylpyrrolidin-1-)methyl)-1H-1,2,3-triazol-1-) Propoxy)-2,2′-dimethyl-[1,1′-biphenyl]-3-methoxy)-5-chloro-2-((5-cyanopyridine-3-)methox y)benzyl) pyrrolidine-2-carboxamide [II-4]”: the IC50 in series [1] is 10 to 100 nM.
On to “5-((4-chloro-2-(((2-hydroxyethyl)amino)methyl)-5-((3′-(3-(4-(((2-hydroxyethyl)amino)methy 1 Base)-1H-1,2,3-triazol-1-)propoxy)-2,2′-dimethyl-[1,1′-biphenyl]-3-)methoxy) phenoxy) methyl)nicotinonitrile [II-2]”, for which the IC50 in series [1] lay within 10 to 100 nM.
In the case of `COc1nc(OCc2cccc(-c3ccccc3)c2C)ccc1CNCCNC(C)=O` [BMS-202], in series [2], the body weight result is reported as “decreased significantly”; the “state of mice (clinical signs)” value was “obvious signs of convulsions and tremors”.
Take `Cc1c(COc2cc(OCc3cncc(C#N)c3)c(CN[C@@H](CO)C(=O)O)cc2Cl)cccc1-c1cccc(OCCCn2cc(CNC(CO)C(=O)O)nn2)c1C` (stereo partly drawn) [II-1, (4-((3′-(3-(4-(((1-carboxy-2-hydroxyethyl)amino)methyl)-1H-1,2,3-triazole-1-)propaneoxy)-2,2′-dimethyl-[1,1′-biphenyl]-3-)methoxy)-5-chloro-2-((5-cyanopyridin-3-)methoxy)benzyl)serine]: in series [3], the “inhibitory effect on tumor growth” value is “weak inhibitory effect on tumor growth”, the “proliferation of CD3+CD4+T cell” value is reported as “can promote the proliferation”, the “proliferation of CD3+CD8+T cell” value is given as “can promote the proliferation” and the “relative tumor inhibition rate” value was 45.8%. Besides, the tumor weight result in series [3] is listed as “excellent anti-tumor effect”. In addition, in series [4], the body weight result is on record as “nor did their body weight decrease”. In addition, in series [1], the IC50 is 0.1 to 10 nM. The compound also came in with a Kd in series [5] of 0.1 to 100 nM.
For the compound `COc1cc(OCc2cccc(-c3cccc(OCCCn4cc(CN5CCCC5C(N)=O)nn4)c3C)c2C)c(Cl)cc1CN1CCCC1C(N)=O` (stereo not drawn) [II-8, 1-(4-((3′-(3-(4-((2-carbamoylpyrrolidin-1-)methyl)-1H-1,2,3-triazol-1-) Propoxy)-2,2′-dimethyl-[1,1′-biphenyl]-3-)methoxy)-5-chloro-2-methoxybenzyl)pyrrolidine-2-formamide], the IC50 in series [1] was 10 to 100 nM. The compound further came in with an equilibrium dissociation constant (Kd) in series [5] of 0.1 to 100 nM.
On to `COc1cc(OCc2cccc(-c3cccc(OCCCn4cc(CNCCO)nn4)c3C)c2C)c(Cl)cc1CNCCO` [II-9], for which the IC50 in series [1] fell in the range of 0.1 to 10 nM. This compound yielded a Kd in series [5] of 0.1 to 100 nM.
Take `COc1cc(OCc2cccc(-c3cccc(OCCCn4cc(CNCCNC(C)=O)nn4)c3C)c2C)c(Cl)cc1CNCCNC(C)=O` [II-10, N-(2-((4-((3′-(3-(4-(((2-acetylaminoethyl)amino)methyl)-1H-1,2,3-triazole-1-)propoxy)-2,2′-dimethyl-[1,1′-biphenyl]-3-)methoxy)-5-chloro-2-methoxybenzyl)amino)ethyl)acetamide]: the IC50 in series [1] lay within 10 to 100 nM.
As for `COc1cc(OCc2cccc(-c3cccc(OCCCn4cc(CN5CC[C@@H](O)C5)nn4)c3C)c2C)c(Cl)cc1CN1CC[C@@H](O)C1` [II-11, (R)-1-((1-(3-((3′-((2-chloro-4-(((R)-3-hydroxypyrrolidin-1-yl)methyl)-5-methoxyphenoxy)methyl)-2,2′-dimethyl-[1,1′-biphenyl]-3-)oxy)propyl)-1H-1,2,3-triazol-4-)methyl)py rrolidin-3-ol], the IC50 in series [1] was 10 to 100 nM. Also, in series [5], the Kd fell in the range of 0.1 to 100 nM.
The like results for `COc1cc(OCc2cccc(-c3cccc(OCCCn4cc(CNCCC(=O)O)nn4)c3C)c2C)c(Cl)cc1CNCCC(=O)O` [II-12, 3-((4-((3′-(3-(4-(((2-carboxyethyl)amino)methyl)-1H-1,2,3-triazol-1-)propoxyl)-2,2′-dimethyl-[1,1′-biphenyl]-3-)methoxy)-5-chloro-2-methoxybenzyl)amino)propionic acid] were, in that order, 0.1 to 10 nM and 0.1 to 100 nM.
With `COc1cc(OCc2cccc(-c3cccc(OCCCn4cc(CN5CCCCC5C(=O)O)nn4)c3C)c2C)c(Cl)cc1CN1CCCCC1C(=O)O` (stereo not drawn) [II-13], the IC50 in series [1] was in the range of 0.1 to 10 nM.
As to `COc1cc(OCc2cccc(-c3cccc(OCCCn4cc(CNC(C)C(=O)O)nn4)c3C)c2C)c(Cl)cc1CN[C@@H](C)C(=O)O` (stereo partly drawn) [II-15, (4-((3′-(3-(4-(((1-carboxyethyl)amino)methyl)-1H-1,2,3-triazol-1-yl)propoxy)-2 ,2′-dimethyl-[1,1′-biphenyl]-3-)methoxy)-5-chloro-2-methoxybenzyl)alanine], the IC50 in series [1] is 0.1 to 10 nM.
Turning to `CCOC(=O)[C@@H](CO)NCc1cn(CCCOc2cccc(-c3cccc(COc4cc(OCc5cncc(C#N)c5)c(CN[C@H](CO)C(=O)OCC)cc4Cl)c3C)c2C)nn1` [II-18, (5-chloro-2-((5-cyanopyridin-3-)methoxy)-4-((3′-(3-(4-((((R)-1-ethoxy-3-hydroxy-1-oxopropan-2-)amino)methyl)-1H-1,2,3-triazol-1-)propoxy)-2,2′-dimethyl-[1,1′-biphenyl]-3-)methoxy)benzyl)-D-serine ethyl ester], in series [3], the “proliferation of CD3+CD4+T cell” value was “can promote the proliferation”, the “proliferation of CD3+CD8+T cell” value is recorded as “can promote the proliferation”, the “relative tumor inhibition rate” value amounted to 49.6% and the tumor weight entry is “excellent anti-tumor effect”. For the same compound, in series [4], the body weight entry is reported as “nor did their body weight decrease”. The IC50 in series [1] was in the range of 10 to 100 nM. The dissociation constant Kd in series [5] lay within 100 to 1000 nM.
In the case of `COC(=O)[C@@H](CO)NCc1cn(CCCOc2cccc(-c3cccc(COc4cc(OCc5cncc(C#N)c5)c(CN[C@H](CO)C(=O)OC)cc4Cl)c3C)c2C)nn1` [II-19, (5-chloro-2-((5-cyanopyridin-3-)methoxy)-4-((3′-(3-(4-((((R)-1-methoxy-3-hydroxy-1-oxopropan-2-)amino)methyl)-1H-1,2,3-triazol-1-)propoxy)-2,2′-dimethyl-[1,1′-biphenyl]-3-)methoxy)benzyl)-D-serine methyl ester], in series [1], the IC50 lay in the range of 10 to 100 nM. For the same compound, the equilibrium dissociation constant (Kd) in series [5] lay in the range of 100 to 1000 nM.
With `CCOC(=O)CNCc1cn(CCCOc2cccc(-c3cccc(COc4cc(OCc5cncc(C#N)c5)c(CNCC(=O)OCC)cc4Cl)c3C)c2C)nn1` [II-20, (5-chloro-2-((5-cyanopyridin-3-yl)methoxy)-4-((3′-(3-(4-(((2-ethoxy-2-oxoethyl)amino)methyl)-1H-1,2,3-triazol-1-)propoxy)-2,2′-dimethyl-[1,1′-biphenyl]-3-)methoxy)benzyl)glycine ethyl ester], in series [1], the IC50 was 10 to 100 nM. This compound registered a Kd in series [5] of 100 to 1000 nM.
Regarding `CCOC(=O)[C@@H](CO)NCc1cn(CCCOc2cccc(-c3cccc(COc4cc(OC)c(CN[C@H](CO)C(=O)OCC)cc4Cl)c3C)c2C)nn1` [II-21, ((1-(3-((3′-((2-chloro-4-((((R)1-ethoxy-3-hydroxy-1-oxopropan-2-)amino)methyl)-5-methoxyphenoxy)methyl)-2,2′-dimethyl-[1,1′-biphenyl]-3-)oxy)propyl)-1H-1,2,3-triazol-4-)methyl)-D-serine ethyl ester], the IC50 in series [1] was 10 to 100 nM. In series [5], the Kd lay in the range of 100 to 1000 nM.
With “(4-((3′-(2-(4-(((1-carboxy-2-hydroxyethyl)amino)methyl)-1H-1,2,3-triazol-1-)ethyl oxy)-2,2′-dimethyl-[1,1′-biphenyl]-3-)methoxy)-5-chloro-2-((5-cyanopyridin-3-)methoxy)ben zyl)serine [II-6]”, the IC50 in series [1] is 100 to 1000 nM.
On to “(4-((3′-(3-(4-(((1-carboxy-2-hydroxyethyl)amino)methyl)-1H-1,2,3-triazol-1-)propoxy)-2,2′-d imethyl-[1,1′-biphenyl]-3-yl)methoxy)-5-chloro-2-methoxybenzyl)serine [II-7]”, for which the IC50 in series [1] was 0.1 to 10 nM. This compound came in with a Kd in series [5] of 0.1 to 100 nM.
As to “(4-((3′-(3-(4-(((1-carboxy-2-hydroxyethyl)amino)methyl)-1H-1,2,3-triazol-1-)propoxyl)-2,2′-dichloro-[1,1′-biphenyl]-3-)methoxy)-5-chloro-2-((5-cyanopyridin-3-)methoxy)benzyl)serine [II-16]”, the IC50 in series [1] is 10 to 100 nM.
On to “(4-((3′-(3-(4-(((carboxymethyl)amino)methyl)-1H-1,2,3-triazol-1-)propoxy)-2,2′-dimethyl-[1,1′-biphenyl]-3-)methoxy)-5-chloro-2-((5-cyanopyridin-3-)methoxy)benzyl) glycine [II-5]”, for which the IC50 in series [1] fell in the range of 0.1 to 10 nM. In series [5], the dissociation constant Kd was in the range of 0.1 to 100 nM.
In the case of “(4-((3′-(3-(4-(((carboxymethyl)amino)methyl)-1H-1,2,3-triazol-1-)propoxy)-2, 2′-dichloro-[1,1′-biphenyl]-3-)methoxy)-5-chloro-2-((5-cyanopyridin-3-)methoxy)benzyl) glycine [II-17]”, the IC50 in series [1] was in the range of 100 to 1000 nM.
Take “N-(2-((4-((3′-(3-(4-(((2-acetylaminoethyl)amino) methyl)-1H-1,2,3-triazole-1-)propoxy)-2,2′-dimethyl-[1,1′-biphenyl]-3-)methoxy)-5-chloro-2-((5-cyanopyridine-3-)methoxy) benzyl)amino)ethyl)acetamide [II-3]”: the IC50 in series [1] is 10 to 100 nM. In series [5], this compound yielded a dissociation constant Kd of 0.1 to 100 nM.
